According to patent publication US9283176B2, “Benzimidazole anthelmintic compositions” (Zoetis Services LLC, priority 2008, dated 2016):

What was measured:
[1] = Triclabendazole solubility in various lactone solvents; type: physicochemical
Method: Still further embodiments of anthelmintic compositions representative of the present invention are prepared according to the process described in Example 1 above, except that lactone solvents other than γ-hexalactone are employed. In particular, the compositions are prepared with one of the following lactone solvents: butyrolactone, δ-hexalactone, γ-dodecalactone, δ-nonalactone, δ-decalactone, γ-decalactone, and δ-dodecalactone.

[2] = Stability studies: total moxidectin and triclabendazole levels after storage; type: physicochemical; conditions: in Composition F, 25° C. or 40° C.; for Stability of the active during storage (in words): entire 6 month storage period
Method: Stability studies were conducted to ensure that a composition according to the present invention was stable. Composition F of Example 3 was prepared according to the process described in Example 1 and stored at either ambient (25° C.) or 40° C. for a total period of 6 months. At the conclusion of each storage period shown in Table V below, samples were tested for total moxidectin and triclabendazole levels.

| SMILES | Solvency in lactone solvents (in words) ([1]; lactone solvents of Table VIII and similar lactones and combinations) | Triclabendazole Solubility (% w/w) ([1]; solvent γ-butyrolactone) | Triclabendazole Solubility (% w/w) ([1]; solvent γ-decalactone) | Triclabendazole Solubility (% w/w) ([1]; solvent γ-dodecalactone) | Triclabendazole Solubility (% w/w) ([1]; solvent γ-hexalactone) | Triclabendazole Solubility (% w/w) ([1]; solvent γ-nonalactone) | Triclabendazole Solubility (% w/w) ([1]; solvent δ-decalactone) | Triclabendazole Solubility (% w/w) ([1]; solvent δ-dodecalactone) | Stability of the active during storage (in words) [2] | Physical state of the active during storage (in words) ([2]; up to 6 months) |
| --- | --- | --- | --- | --- | --- | --- | --- | --- | --- | --- |
| CSc1nc2cc(Cl)c(Oc3cccc(Cl)c3Cl)cc2[nH]1 [Triclabendazole, 5-chloro-6(2,3-dichlorophenoxy)-2-methylthio-1H-benzimidazole] | surprisingly good solvency | >18.0 | 15.2 | 11.8 | 16.8 | 16.7 | 28.1 | 21.5 | remained stable and active | remained in solution |
| CO/N=C1\C[C@]2(C[C@@H]3C[C@@H](C/C=C(\C)C[C@@H](C)/C=C/C=C4\CO[C@@H]5[C@H](O)C(C)=C[C@@H](C(=O)O3)[C@]45O)O2)O[C@H](/C(C)=C/C(C)C)[C@H]1C [Moxidectin] | – | – | – | – | – | – | – | – | remained stable and active | – |
